Laboratory results taken from US11357779B2 (G1 Therapeutics, Inc., priority 2018, dated 2022).
Where two headings read alike, the source gives them in different places.

Assay: Plasma concentration versus time of Compound I and metabolite Compound III in patients dosed QD or BID with Form B of Compound II plus fulvestrant
Format: in vivo, human
Settings: human, plasma, oral, 650 mg; for concentration at 8 day: Day 8; for concentration at 15 day: Day 15; for concentration at 22 day: Day 22; for concentration at 0 h: Day 29, 0.0 h; for concentration at 1 h: Day 29, 1.0 h; for concentration at 2 h: Day 29, 2.0 h; for concentration at 3 h: Day 29, 3.0 h; for concentration at 4 h: Day 29, 4.0 h; for concentration at 6 h: Day 29, 6.0 h
Source text: Patients were enrolled into 1 of 2 parallel, independently operating, dose-escalation dosing cohorts with Form B of Compound II administered continuously either once daily (QD) or twice daily (BID) with food with fixed-dose fulvestrant (intramuscularly every 14 days for the first three injections and then every 28 days). Pre- or perimenopausal patients also received goserelin for the duration of study treatment. A […] agonist was started at least 28 days before the first dose of Form B, and those patients who were taking another LHRH agonist were switched to goserelin on Day 1. Patients were split into […] cohorts providing once a day (QD) dosing of 200 mg, 300 mg, 400 mg, 500 mg, or 650 mg of Form B, or twice a day (BID) dosing of 100 mg, 150 mg, or 200 mg of Form B. The second dose in BID cohorts was not administered in the evening until at least 12 hours after the initial morning dose of Form B. The dosing cohorts for Form B of Compound II are provided in Table 1.
Blood samples were collected at the following time points relative to the morning dose of Form B at Day 1 and at Day 29: pre-dose (0 hour) and 1, 2, 3, 4, 6, 8, 10, 12 (prior to the evening dose in the BID cohorts), and 24 (prior to the next day's morning dose) hours after dosing. A 5-minute time window was allowed for samples collected between the predose and 3 hours after Form B dosing. A 15-minute window was allowed for samples collected between 4 to 12 hours after Form B dosing. A 1-hour window was allowed for the sample collected 24 hours after Form B dosing. Blood samples for Compound I PK trough levels were collected pre-dose at Day 8, Day 15, and Day 22 prior to the morning administration of Compound I. Plasma concentrations of Compound I and its metabolite, Compound III, were measured using validated methods.
Analysis of plasma concentration versus time data for calculation of standard pharmacokinetic (PK) parameters following oral administration was conducted using Phoenix WinNonlin version 6.3 using actual blood sampling times.

[1] = Cohort 5, 650 mg QD of Form B, read-out: Trough Compound I Concentration, Max
[2] = Cohort 5, 650 mg QD of Form B, read-out: Trough Compound I Concentration, Mean
[3] = Cohort 5, 650 mg QD of Form B, read-out: Trough Compound I Concentration, Median
[4] = Cohort 5, 650 mg QD of Form B, read-out: Trough Compound I Concentration, Min
[5] = Cohort 5, 650 mg QD of Form B, read-out: Compound I Concentration, Max
[6] = Cohort 5, 650 mg QD of Form B, read-out: Compound I Concentration, Mean
[7] = Cohort 5, 650 mg QD of Form B, read-out: Compound I Concentration, Median
[8] = Cohort 5, 650 mg QD of Form B, read-out: Compound I Concentration, Min

Q: With `CC(C)N1CCN(c2ccc(Nc3ncc4cc5n(c4n3)C3(CCCCC3)CNC5=O)nc2)CC1` [Compound I, 2′-((5-(4-isopropylpiperazin-1-yl)pyridin-2-yl)amino)-7′,8′-dihydro-6′H-spiro[cyclohexane-1,9′-pyrazino[1′,2′:1,5]pyrrolo[2,3-d]pyrimidin]-6′-one] as the compound, how does the concentration at 8 h (650 mg QD of Form B, Day 1, 8.0 h, Median, read-out: Compound I Concentration) read?
A: 60.3 ng/mL

Q: What about the concentration at 10 h (650 mg QD of Form B, Day 1, 10.0 h, Mean, read-out: Compound I Concentration) of the same compound?
A: 48.4 ng/mL

Q: What about the concentration at 10 h (650 mg QD of Form B, Day 1, 10.0 h, Median, read-out: Compound I Concentration) of the same compound?
A: 47.9 ng/mL

Q: What about the concentration at 12 h (650 mg QD of Form B, Day 1, 12.0 h, Mean, read-out: Compound I Concentration) of the same compound?
A: 37.4 ng/mL

Q: What about the concentration at 12 h (650 mg QD of Form B, Day 1, 12.0 h, Median, read-out: Compound I Concentration) of the same compound?
A: 37.3 ng/mL

Q: What about the concentration at 24 h (650 mg QD of Form B, Day 1, […], Mean, read-out: Compound I Concentration) of the same compound?
A: 17.1 ng/mL

Q: What about the concentration at 24 h (650 mg QD of Form B, Day 1, […], Median, read-out: Compound I Concentration) of the same compound?
A: 16 ng/mL

Q: What about the concentration at 8 day [1] of the same compound?
A: 43.9 ng/mL

Q: What about the concentration at 8 day [2] of the same compound?
A: 28.9 ng/mL

Q: What about the concentration at 8 day [3] of the same compound?
A: 28.3 ng/mL

Q: And the concentration at 8 day [4]?
A: 17 ng/mL

Q: And the concentration at 15 day [1]?
A: 30.7 ng/mL

Q: What about the concentration at 15 day [2] of the same compound?
A: 25.7 ng/mL

Q: What about the concentration at 15 day [3] of the same compound?
A: 27.4 ng/mL

Q: And the concentration at 15 day [4]?
A: 19.1 ng/mL

Q: What about the concentration at 22 day [1] of the same compound?
A: 43.7 ng/mL

Q: And the concentration at 22 day [2]?
A: 30.3 ng/mL

Q: And the concentration at 22 day [3]?
A: 24 ng/mL

Q: What about the concentration at 22 day [4] of the same compound?
A: 23.3 ng/mL

Q: And the concentration at 0 h [5]?
A: 28.9 ng/mL

Q: What about the concentration at 0 h [6] of the same compound?
A: 20.9 ng/mL

Q: What about the concentration at 0 h [7] of the same compound?
A: 22.5 ng/mL

Q: And the concentration at 0 h [8]?
A: 11.4 ng/mL

Q: What about the concentration at 1 h [5] of the same compound?
A: 29.6 ng/mL

Q: And the concentration at 1 h [6]?
A: 20.9 ng/mL

Q: And the concentration at 1 h [7]?
A: 20.9 ng/mL

Q: And the concentration at 1 h [8]?
A: 12.1 ng/mL

Q: And the concentration at 2 h [5]?
A: 34.9 ng/mL

Q: And the concentration at 2 h [6]?
A: 25.9 ng/mL

Q: What about the concentration at 2 h [7] of the same compound?
A: 25.9 ng/mL

Q: And the concentration at 2 h [8]?
A: 16.8 ng/mL

Q: What about the concentration at 3 h [5] of the same compound?
A: 39.5 ng/mL

Q: And the concentration at 3 h [6]?
A: 28.4 ng/mL

Q: And the concentration at 3 h [7]?
A: 28.4 ng/mL

Q: What about the concentration at 3 h [8] of the same compound?
A: 17.2 ng/mL

Q: And the concentration at 4 h [5]?
A: 43.8 ng/mL

Q: What about the concentration at 4 h [6] of the same compound?
A: 33.1 ng/mL

Q: What about the concentration at 4 h [7] of the same compound?
A: 33.1 ng/mL

Q: What about the concentration at 4 h [8] of the same compound?
A: 22.3 ng/mL

Q: What about the concentration at 6 h [5] of the same compound?
A: 79.3 ng/mL

Q: What about the concentration at 6 h [6] of the same compound?
A: 58.8 ng/mL

Q: And the concentration at 6 h [7]?
A: 58.8 ng/mL

Q: And the concentration at 6 h [8]?
A: 38.2 ng/mL

Q: And the concentration at 8 h (Cohort 5, 650 mg QD of Form B, Day 29, 8.0 h, read-out: Compound I Concentration, Max)?
A: 88.7 ng/mL

Q: What about the concentration at 8 h (Cohort 5, 650 mg QD of Form B, Day 29, 8.0 h, read-out: Compound I Concentration, Mean) of the same compound?
A: 66 ng/mL

Q: What about the concentration at 8 h (Cohort 5, 650 mg QD of Form B, Day 29, 8.0 h, read-out: Compound I Concentration, Median) of the same compound?
A: 66 ng/mL

Q: What about the concentration at 8 h (Cohort 5, 650 mg QD of Form B, Day 29, 8.0 h, read-out: Compound I Concentration, Min) of the same compound?
A: 43.2 ng/mL

Q: And the concentration at 10 h (Cohort 5, 650 mg QD of Form B, Day 29, 10.0 h, read-out: Compound I Concentration, Max)?
A: 78.2 ng/mL

Q: What about the concentration at 10 h (Cohort 5, 650 mg QD of Form B, Day 29, 10.0 h, read-out: Compound I Concentration, Mean) of the same compound?
A: 58.1 ng/mL

Q: And the concentration at 10 h (Cohort 5, 650 mg QD of Form B, Day 29, 10.0 h, read-out: Compound I Concentration, Median)?
A: 58.1 ng/mL

Q: And the concentration at 10 h (Cohort 5, 650 mg QD of Form B, Day 29, 10.0 h, read-out: Compound I Concentration, Min)?
A: 37.9 ng/mL

Q: And the concentration at 12 h (Cohort 5, 650 mg QD of Form B, Day 29, 12.0 h, read-out: Compound I Concentration, Max)?
A: 63.2 ng/mL

Q: What about the concentration at 12 h (Cohort 5, 650 mg QD of Form B, Day 29, 12.0 h, read-out: Compound I Concentration, Mean) of the same compound?
A: 46.3 ng/mL

Q: And the concentration at 12 h (Cohort 5, 650 mg QD of Form B, Day 29, 12.0 h, read-out: Compound I Concentration, Median)?
A: 46.3 ng/mL

Q: And the concentration at 12 h (Cohort 5, 650 mg QD of Form B, Day 29, 12.0 h, read-out: Compound I Concentration, Min)?
A: 29.4 ng/mL

Q: And the concentration at 24 h (Cohort 5, 650 mg QD of Form B, Day 29, […], read-out: Compound I Concentration, Max)?
A: 27.8 ng/mL

Q: What about the concentration at 24 h (Cohort 5, 650 mg QD of Form B, Day 29, […], read-out: Compound I Concentration, Mean) of the same compound?
A: 24.3 ng/mL

Q: And the concentration at 24 h (Cohort 5, 650 mg QD of Form B, Day 29, […], read-out: Compound I Concentration, Median)?
A: 24.3 ng/mL

Q: What about the concentration at 24 h (Cohort 5, 650 mg QD of Form B, Day 29, […], read-out: Compound I Concentration, Min) of the same compound?
A: 20.7 ng/mL
